Test system: 485176-168-R4-J1-PDC spheroids with HUVEC/MSC, viability
Assay: Anticancer human tumor 485176-168-R4-J1-PDC patient-derived pancreatic adenocarcinoma cell line growth inhibition [GQUAD]
Conditions: for IC50: curve of first compound; for viability, T/C: stronger effect = lower value
Method in brief: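 Multi-cell-type spheroids of tumor cells with HUVEC and mesenchymal stem cells, treated with drug combinations. Concentrations descend in half-log steps from near clinical Cmax, or from 10 microM where Cmax is unknown; viability read-out.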

[1] = second compound 0.0316 µM, first compound 0.0316 µM
[2] = second compound 0.0316 µM, first compound 0.316 µM
[3] = second compound 0.1 µM, first compound 0.0316 µM
[4] = second compound 0.1 µM, first compound 0.316 µM
[5] = second compound 0.316 µM, first compound 0.0316 µM
[6] = second compound 0.316 µM, first compound 0.316 µM
[7] = second compound 1 µM, first compound 0.0316 µM
[8] = second compound 1 µM, first compound 0.316 µM
[9] = second compound 3.16 µM, first compound 0.0316 µM
[10] = second compound 3.16 µM, first compound 0.316 µM
[11] = second compound 10 µM, first compound 0.0316 µM
[12] = second compound 10 µM, first compound 0.316 µM
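Further: spheroids exposed to compounds for seven days before readout.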
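Wherever viability, T/C is given: percent viability relative to DMSO vehicle control wells as 100%.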

CCc1c2c(nc3ccc(O)cc13)-c1cc3c(c(=O)n1C2)COC(=O)[C@]3(O)CC + Cc1cnc(CNC(=O)c2c(=O)c3ccc(N4CCCN(C)CC4)nc3n3c2sc2ccccc23)cn1 showed an IC50 (second compound 0.0316 µM) of 3.5 nM, an IC50 (second compound 0.1 µM) of 1.5 nM and an IC50 (second compound 0.316 µM) of 1.67 nM. It also gave an IC50 (second compound 1 µM) of less than 0.999 nM, an IC50 (second compound 3.16 µM) of less than 0.999 nM and an IC50 (second compound 10 µM) of less than 0.999 nM. The viability, T/C (second compound 0.0316 µM, first compound 0.000999 µM) was 79.5%, the viability, T/C (second compound 0.0316 µM, first compound 0.00316 µM) was 47.6% and the viability, T/C (second compound 0.0316 µM, first compound 0.00999 µM) was 36%. It also gave a viability, T/C [1] of 19.6%, a viability, T/C (second compound 0.0316 µM, first compound 0.0999 µM) of 12.6% and a viability, T/C [2] of 4.96%. It also gave a viability, T/C (second compound 0.1 µM, first compound 0.000999 µM) of 54.7%, a viability, T/C (second compound 0.1 µM, first compound 0.00316 µM) of 42.7% and a viability, T/C (second compound 0.1 µM, first compound 0.00999 µM) of 26.6%. The viability, T/C [3] was 21.9%, the viability, T/C (second compound 0.1 µM, first compound 0.0999 µM) was 11.4% and the viability, T/C [4] was 4.78%. For the same compound, the viability, T/C (second compound 0.316 µM, first compound 0.000999 µM) was 53%, the viability, T/C (second compound 0.316 µM, first compound 0.00316 µM) was 47% and the viability, T/C (second compound 0.316 µM, first compound 0.00999 µM) was 30.9%. It also gave a viability, T/C [5] of 19.5%, a viability, T/C (second compound 0.316 µM, first compound 0.0999 µM) of 10.7% and a viability, T/C [6] of 5.12%. For the same compound, the viability, T/C (second compound 1 µM, first compound 0.000999 µM) was 40.2%, the viability, T/C (second compound 1 µM, first compound 0.00316 µM) was 38.9% and the viability, T/C (second compound 1 µM, first compound 0.00999 µM) was 33.2%. The viability, T/C [7] was 20%, the viability, T/C (second compound 1 µM, first compound 0.0999 µM) was 11.9% and the viability, T/C [8] was 5.51%. The viability, T/C (second compound 3.16 µM, first compound 0.000999 µM) was 42.6%, the viability, T/C (second compound 3.16 µM, first compound 0.00316 µM) was 35% and the viability, T/C (second compound 3.16 µM, first compound 0.00999 µM) was 27.3%. It also gave a viability, T/C [9] of 22.1%, a viability, T/C (second compound 3.16 µM, first compound 0.0999 µM) of 11.1% and a viability, T/C [10] of 6.82%. The viability, T/C (second compound 10 µM, first compound 0.000999 µM) was 33.8%, the viability, T/C (second compound 10 µM, first compound 0.00316 µM) was 29.4% and the viability, T/C (second compound 10 µM, first compound 0.00999 µM) was 25.1%. For the same compound, the viability, T/C [11] was 19.9%, the viability, T/C (second compound 10 µM, first compound 0.0999 µM) was 5.56% and the viability, T/C [12] was 0.25%.

COc1cc(C2c3cc4c(cc3C(OC3OC5COC(C)OC5C(O)C3O)C3COC(=O)C23)OCO4)cc(OC)c1O (centres undefined) + Cc1cnc(CNC(=O)c2c(=O)c3ccc(N4CCCN(C)CC4)nc3n3c2sc2ccccc23)cn1 was tested, and the IC50 (second compound 0.0316 µM) was 322 nM, the IC50 (second compound 0.1 µM) was 171 nM and the IC50 (second compound 0.316 µM) was 123 nM. The IC50 (second compound 1 µM) was less than 31.6 nM, the IC50 (second compound 3.16 µM) was less than 31.6 nM and the IC50 (second compound 10 µM) was less than 31.6 nM. The viability, T/C [1] was 87.9%, the viability, T/C (second compound 0.0316 µM, first compound 0.1 µM) was 63.1% and the viability, T/C [2] was 49.7%. The viability, T/C (second compound 0.0316 µM, first compound 1 µM) was 38.1%, the viability, T/C (second compound 0.0316 µM, first compound 3.16 µM) was 21% and the viability, T/C (second compound 0.0316 µM, first compound 10 µM) was 8.67%. The viability, T/C [3] was 65.4%, the viability, T/C (second compound 0.1 µM, first compound 0.1 µM) was 55.4% and the viability, T/C [4] was 40.6%. For the same compound, the viability, T/C (second compound 0.1 µM, first compound 1 µM) was 36%, the viability, T/C (second compound 0.1 µM, first compound 3.16 µM) was 22.3% and the viability, T/C (second compound 0.1 µM, first compound 10 µM) was 8.6%. For the same compound, the viability, T/C [5] was 55.6%, the viability, T/C (second compound 0.316 µM, first compound 0.1 µM) was 53.6% and the viability, T/C [6] was 38.2%. It also gave a viability, T/C (second compound 0.316 µM, first compound 1 µM) of 41.3%, a viability, T/C (second compound 0.316 µM, first compound 3.16 µM) of 24.3% and a viability, T/C (second compound 0.316 µM, first compound 10 µM) of 8.95%. The viability, T/C [7] was 56%, the viability, T/C (second compound 1 µM, first compound 0.1 µM) was 41.8% and the viability, T/C [8] was 47.4%. It also gave a viability, T/C (second compound 1 µM, first compound 1 µM) of 41.5%, a viability, T/C (second compound 1 µM, first compound 3.16 µM) of 18.4% and a viability, T/C (second compound 1 µM, first compound 10 µM) of 9.08%. It also gave a viability, T/C [9] of 49.9%, a viability, T/C (second compound 3.16 µM, first compound 0.1 µM) of 33.8% and a viability, T/C [10] of 35.7%. For the same compound, the viability, T/C (second compound 3.16 µM, first compound 1 µM) was 34.8%, the viability, T/C (second compound 3.16 µM, first compound 3.16 µM) was 22.8% and the viability, T/C (second compound 3.16 µM, first compound 10 µM) was 8.98%. The viability, T/C [11] was 42.4%, the viability, T/C (second compound 10 µM, first compound 0.1 µM) was 38.9% and the viability, T/C [12] was 39.1%. For the same compound, the viability, T/C (second compound 10 µM, first compound 1 µM) was 33.3%, the viability, T/C (second compound 10 µM, first compound 3.16 µM) was 18.1% and the viability, T/C (second compound 10 µM, first compound 10 µM) was 3.75%.

Source: PubChem BioAssay AID2060509 (Molecular Pharmacology Branch, DTP, NCI, 2025)
